Reference: ChEMBL document CHEMBL1201862, “PubChem BioAssay data set” (2004)
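Growth conditions: 96-well plates. Treatment: test compound, 48 hours, 5 concentrations. Analysis: linear interpolation between bracketing concentrations; unreached endpoints set to highest concentration. GI50 = concentration required for 50% inhibition of growth.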 Active and inactive are the calls of the source. No stated cut-off is given here; in the data, active = GI50 up to about 1.1 µM and inactive = higher.

How the values were obtained:
Assay in all cases: DTP human tumour cell line panel, 48 h
SNB-75 = system: SNB-75
A498 = system: A498
SF-295 = system: SF-295
SK-MEL-2 = system: SK-MEL-2
HOP-92 = system: HOP-92
SK-MEL-28 = system: SK-MEL-28
SW-620 = system: SW-620
UACC-62 = system: UACC-62
U-251 = system: U-251
OVCAR-8 = system: OVCAR-8
RXF 393 = system: RXF 393
NCI-H23 = system: NCI-H23
IGROV-1 = system: IGROV-1
HCT-116 = system: HCT-116
CCRF-CEM = system: CCRF-CEM
KM12 = system: KM12
HOP-62 = system: HOP-62
M14 = system: M14
TK-10 = system: TK-10
ACHN = system: ACHN

Measured: GI50

Cc1ccc(N2Cc3c(ccc4ccccc34)OP2(=O)Oc2ccc(Cl)c(C)c2)cc1 (configuration not stated)
inactive: SNB-75 > 100 µM | A498 81.5 µM | SF-295 > 51.2 µM | SK-MEL-2 > 100 µM | HOP-92 50 µM | SK-MEL-28 > 100 µM | SW-620 > 81.8 µM | UACC-62 > 100 µM | U-251 > 100 µM | OVCAR-8 > 100 µM | RXF 393 > 79.4 µM | NCI-H23 > 100 µM | IGROV-1 > 100 µM | HCT-116 26.1 µM | CCRF-CEM > 93.3 µM | KM12 > 84.3 µM | HOP-62 > 100 µM

C(=C\c1csnn1)/c1cccnc1
inactive: SNB-75 > 100 µM | A498 > 100 µM | SF-295 > 100 µM | SK-MEL-2 > 100 µM | SK-MEL-28 > 100 µM | SW-620 > 100 µM | U-251 > 100 µM | OVCAR-8 > 100 µM | RXF 393 > 100 µM | M14 > 100 µM | NCI-H23 > 100 µM | HCT-116 > 100 µM | KM12 > 100 µM | TK-10 > 100 µM | HOP-62 > 100 µM | ACHN > 100 µM

CC(=O)[C@@]1(c2ccccc2)CC2(CCN(C)CC2)O[C@H]1C
inactive: SNB-75 > 100 µM | A498 > 100 µM | SF-295 > 100 µM | HOP-92 > 100 µM | SK-MEL-28 > 100 µM | SW-620 > 100 µM | U-251 > 100 µM | OVCAR-8 > 100 µM | RXF 393 > 100 µM | M14 > 100 µM | NCI-H23 > 100 µM | IGROV-1 > 100 µM | HCT-116 > 100 µM | KM12 > 100 µM | TK-10 > 100 µM | HOP-62 > 100 µM | ACHN > 100 µM

COc1ccc(OCC(C)(C)O)cc1
inactive: SNB-75 > 47 µM | A498 > 100 µM | SF-295 > 100 µM | SK-MEL-2 > 100 µM | HOP-92 > 100 µM | SK-MEL-28 > 100 µM | SW-620 > 100 µM | UACC-62 > 100 µM | U-251 > 100 µM | OVCAR-8 > 100 µM | RXF 393 > 100 µM | NCI-H23 > 100 µM | IGROV-1 > 100 µM | HCT-116 > 100 µM | CCRF-CEM > 100 µM | KM12 > 100 µM | HOP-62 > 100 µM

C=C(NC(=O)C(=C)NC(=O)c1ccc2c(n1)-c1coc(n1)C(=C)NC(=O)C(=C)NC(=O)c1nc(oc1C)C(=C)NC(=O)C(C(C)(C)O)NC(=O)C(=C)NC(=O)c1coc(n1)/C(=C/C)NC(=O)[C@H]([C@@H](C)O)NC(=O)c1csc-2n1)C(N)=O (some centres not stated)
inactive: SNB-75 > 87.5 µM | A498 > 87.5 µM | SF-295 > 87.5 µM | SK-MEL-2 > 87.5 µM | HOP-92 > 87.5 µM | SK-MEL-28 > 87.5 µM | SW-620 > 87.5 µM | U-251 > 87.5 µM | OVCAR-8 > 87.5 µM | RXF 393 > 87.5 µM | M14 55 µM | NCI-H23 > 87.5 µM | IGROV-1 61.1 µM | HCT-116 > 87.5 µM | CCRF-CEM > 87.5 µM | KM12 66.7 µM | TK-10 > 87.5 µM | HOP-62 81.5 µM | ACHN > 87.5 µM

S=C(S)N1CCN(c2ccccc2)CC1
inactive: SNB-75 > 100 µM | A498 > 100 µM | SF-295 > 100 µM | SK-MEL-2 37.9 µM | HOP-92 > 100 µM | SK-MEL-28 45.9 µM | SW-620 71.9 µM | U-251 48.5 µM | OVCAR-8 > 100 µM | RXF 393 > 100 µM | M14 > 100 µM | IGROV-1 > 100 µM | HCT-116 34.5 µM | KM12 > 100 µM | TK-10 > 100 µM | HOP-62 > 100 µM | ACHN > 100 µM

C[C@]12CC[C@H](OC3CCCCO3)CC1=CC[C@@H]1C2CC[C@]2(C)/C(=N/OCCC#N)CCC12 (some centres not stated)
inactive: SNB-75 20.3 µM | A498 > 100 µM | SF-295 21.3 µM | SK-MEL-2 56.2 µM | HOP-92 21.9 µM | SK-MEL-28 > 100 µM | SW-620 > 100 µM | UACC-62 97.1 µM | U-251 40.4 µM | OVCAR-8 34.2 µM | RXF 393 16 µM | M14 > 100 µM | NCI-H23 11.4 µM | IGROV-1 > 100 µM | HCT-116 5.73 µM | KM12 > 100 µM | TK-10 24 µM | HOP-62 > 100 µM | ACHN 33.8 µM

CC(C)Oc1cccc(N2C(n3ccnc3)=Nc3ccncc3S2(=O)=O)c1
inactive: SNB-75 18.7 µM | A498 17.8 µM | SF-295 34.9 µM | SK-MEL-2 13.1 µM | HOP-92 12.7 µM | SK-MEL-28 17.9 µM | SW-620 12.6 µM | UACC-62 15.7 µM | U-251 15.4 µM | OVCAR-8 14.5 µM | RXF 393 14.7 µM | M14 13.6 µM | NCI-H23 11.5 µM | IGROV-1 14.6 µM | HCT-116 13.6 µM | KM12 23.2 µM | TK-10 12.1 µM | HOP-62 18.3 µM | ACHN 10 µM

CCN(CCO)C(=O)C1(c2ccccc2)CCCCC1
inactive: SNB-75 > 10 µM | A498 > 10 µM | SF-295 > 10 µM | SK-MEL-2 > 10 µM | SK-MEL-28 > 10 µM | SW-620 > 10 µM | UACC-62 > 10 µM | U-251 > 10 µM | OVCAR-8 > 10 µM | RXF 393 > 10 µM | M14 > 10 µM | NCI-H23 > 10 µM | IGROV-1 > 10 µM | HCT-116 > 10 µM | CCRF-CEM > 10 µM | KM12 > 10 µM | TK-10 > 10 µM | HOP-62 > 10 µM | ACHN > 10 µM

S=C(Cc1ccc2c(c1)Sc1ccccc1O2)N1CCOCC1
inactive: SNB-75 18.7 µM | A498 50.6 µM | SF-295 22.6 µM | SK-MEL-2 66.7 µM | HOP-92 30.6 µM | SK-MEL-28 59.7 µM | SW-620 43 µM | UACC-62 28.6 µM | U-251 31.8 µM | OVCAR-8 30.5 µM | RXF 393 69.8 µM | M14 40.6 µM | NCI-H23 46.2 µM | IGROV-1 33.7 µM | HCT-116 8.32 µM | KM12 29 µM | TK-10 > 100 µM | HOP-62 > 100 µM | ACHN 38.7 µM

CN(C)Cc1cc(/N=N/c2ccc(Cl)cc2)ccc1OC(=O)c1ccccc1
inactive: SNB-75 17 µM | A498 15.5 µM | SF-295 14.8 µM | HOP-92 2.9 µM | SK-MEL-28 16.1 µM | SW-620 16.9 µM | U-251 15 µM | OVCAR-8 17 µM | RXF 393 14.5 µM | NCI-H23 17.8 µM | IGROV-1 13.2 µM | HCT-116 16.4 µM | CCRF-CEM 15.3 µM | KM12 15.7 µM | TK-10 15.3 µM | HOP-62 12.6 µM | ACHN 14.5 µM

O=C1NC2(CCCCC2)C2CCCCC(O)C12 (configuration not stated)
inactive: SNB-75 57.1 µM | A498 > 100 µM | SF-295 > 100 µM | SK-MEL-2 > 100 µM | SK-MEL-28 > 100 µM | SW-620 > 100 µM | UACC-62 > 100 µM | U-251 > 100 µM | OVCAR-8 > 100 µM | RXF 393 > 100 µM | NCI-H23 > 100 µM | IGROV-1 > 100 µM | HCT-116 > 100 µM | CCRF-CEM > 100 µM | KM12 > 100 µM | TK-10 > 100 µM | HOP-62 > 100 µM | ACHN > 100 µM

O=P1(O)c2ccccc2CS(=O)(=O)Cc2ccccc21
inactive: A498 > 100 µM | SF-295 > 100 µM | SK-MEL-2 > 100 µM | HOP-92 > 100 µM | SK-MEL-28 > 100 µM | SW-620 > 100 µM | UACC-62 > 100 µM | U-251 > 100 µM | OVCAR-8 > 100 µM | RXF 393 > 100 µM | M14 > 100 µM | NCI-H23 > 100 µM | IGROV-1 > 100 µM | HCT-116 > 100 µM | CCRF-CEM > 100 µM | KM12 > 100 µM | TK-10 > 100 µM | HOP-62 > 100 µM | ACHN > 100 µM

O=C1CCC2COc3ccc(O)c1c32 (configuration not stated)
inactive: SNB-75 77.6 µM | A498 > 100 µM | SF-295 > 100 µM | HOP-92 79.3 µM | SK-MEL-28 > 100 µM | SW-620 > 100 µM | UACC-62 > 100 µM | U-251 > 100 µM | OVCAR-8 > 100 µM | RXF 393 > 100 µM | M14 > 100 µM | NCI-H23 > 100 µM | IGROV-1 > 100 µM | HCT-116 > 100 µM | CCRF-CEM > 100 µM | TK-10 > 100 µM | ACHN > 100 µM

C(=C\Nc1ccc(Oc2ccccc2)cc1)/C=N/c1ccc(Oc2ccccc2)cc1
inactive: SNB-75 17.2 µM | A498 16.2 µM | SF-295 15.9 µM | HOP-92 24.3 µM | SK-MEL-28 16.6 µM | SW-620 19 µM | U-251 19.1 µM | OVCAR-8 20.2 µM | RXF 393 20 µM | NCI-H23 22.2 µM | IGROV-1 17.1 µM | HCT-116 17.4 µM | CCRF-CEM 15.3 µM | KM12 16.4 µM | TK-10 18.7 µM | HOP-62 20.7 µM | ACHN 19.6 µM
